According to article PMC8280143, “A novel dephosphorylation targeting chimera selectively promoting tau removal in tauopathies” (Signal Transduction and Targeted Therapy, 2021):

How the values were obtained:
endogenous mouse tau = test: Hippocampal endogenous mouse tau in NW-administrated Tau368 mice; type: in vivo; conditions: 30 μg total protein
Description: Mice weighting 20–30 g were anesthetized with 1% pentobarbital sodium (35 mg/kg), and fixed in a stereotaxic instrument (RWD). The scalp was sterilized with iodophors and 75% ethanol, and incised along the skull midline. Holes were drilled. Adeno-associated virus or DEPTAC was injected into the dorsal DG (posterior 1.9 mm, lateral ±1.1 mm from the bregma, ventral −2.0 from the skull) or lateral ventricle (posterior 0.22 mm, lateral ±1.0 mm from the bregma, ventral −2.5 from the skull), respectively, using an automatic microinjection system (World Precision Instruments, USA) at a rate of 0.05 μL/min. The needle syringe was left in place for 5 min before withdrawal. The skin was sutured and sterilized with iodophors. Mice were placed on thermos tank for analepsia.
For 2-month male C57BL/6 mice, 10 mM FITC-labeled or unlabeled-DEPTAC were directly injected through the tail vein or lateral ventricle for the evaluation of BBB-penetrability. For 9-month 3×Tg AD mice or Tau368 (20–30 g body weight), unlabeled-DEPTAC (5 mM, 1 μL for each time) was delivered for once into the lateral ventricle through direct stereotaxic injection, or repeatedly administrated through guiding cannulas (RWD, Shenzhen, China) implanted into the lateral ventricle once every 3 days for a consecutive month to test its dephosphorylation efficiency. Mice were restricted in a custom designed device and stayed awake during drug administration, and sacrificed at 24 h post the single or last DEPTAC administration.
Cultured cells or hippocampus tissues were collected on ice, and homogenized with RIPA lysis buffer containing 50 mM Tris-HCl, 100 mM NaCl, 1% Triton X-100, 5 mM EDTA, and 1:100 PMSF, and then centrifuged at 12,000 × g for 20 min. The supernatant was collected for the analysis of soluble proteins. In some experiments, the pellets were further incubated with 8% SDS buffer at 37 °C and then ultrasound for 60 times to reach a complete resuspension for the analysis of insoluble tau. Protein concentration was measured through BCA assays (Thermo Fisher). Equal amount of protein from each sample were separated in SDS-PAGE gels, and then transferred onto nitrocellulose or 0.22 μm polyvinylidene fluoride membranes (Merck Millipore). The membranes were blocked with 5% BSA, and incubated in turn with primary and horseradish peroxidase-conjugated secondary antibodies: pS199-Tau (44734G, Invitrogen, 1:2000), pT205-Tau (11108-1, Signalway, 1:2000), pS396-Tau (11102, Signalway, 1:2000), pS404-Tau (11112, Signalway, 1:2000), AT8 (MN1020, Thermo Fisher, 1:1000), Tau5 (ab80579, Abcam, 1:1000), Tau46 (T9450, Sigma, 1:1000), PP2A-Bα (4953, Cell signaling, 1:1000), Phospho-Ser/Thr (ab17464, Abcam1:1000), Ubiquitin (ab7254, Abcam, 1:1000), MAP2 (AB5622, Millipore, 1:2000), hTau-N368 (a generous gift from Prof. Keqiang Ye, Emory University School of Medicine, 1:1000), DEPTAC (developed by Daian Biotechnology, Wuhan, China, 1:500), β-actin (ab6276, Abcam, 1:2000). HRP-conjugated goat anti-rabbit IgG (A0208, Beyotime, 1:3000), HRP-conjugated goat anti-mouse IgG (A0216, Beyotime, 1:3000). Blots were visualized using ECL luminol reagent (P0018FS, Beyotime), and quantified using ImageJ software.

human tau (hTau) = test: Immunofluorescence staining of phospho-tau in primary neurons with hTau overexpression; type: cell-based; conditions: DEPTAC 200 μM for 24 h; *p < 0.05, **p < 0.01, n = 3 cell wells
Description: Lentivirus LV-EF1α-hTau-GFP (3.50E+8 vg/mL) was packaged by OBiO (Shanghai, China) and used for hTau-overexpression (fused with GFP) in cultured primary rat neurons. AAV-CaMKIIα-Cre (diluted to 5.21E + 07 vg/mL) and AAV-EF1α-DIO-mCherry (3.24E + 12 vg/mL) were obtained from BrainVTA (Wuhan, China) and co-injected (1:1 vol/vol) for sparse labeling of dorsal DG neurons. Doxycycline was purchased from Energy Chemical (Shanghai, China). Rabbit polyclonal DEPTAC antibody was prepared by Daian Biotechnology (Wuhan, China). All other reagents including MG132 were purchased from Sigma-Aldrich (USA), unless otherwise specified.
Primary hippocampal neurons were prepared from E12–E15 days SD rat embryos. Briefly, pregnant rats were acutely executed, hippocampus was dissected on ice and gently minced in DME/F12 (Hyclone) then suspended in 0.125% (vol/vol) trypsin solution at 37 °C for 20 min. Enzymatic activity was stopped by fetal bovine serum. Neurons were initially kept in 10% FBS-containing DME/F12 for 4–6 h, and subsequently cultured in Neurobasal (Hyclone) with 2% B27, 1% glutamax and 1% penicillin–streptomycin (Thermo Fisher Scientific) in dishes pre-coated with 100 μg/mL poly-D-lysine. Serum was gradually removed by replacing half of the medium for each time within the following 2 days. […]

[1] = NW Tau368 mice (no dox), n = 3–4

(1) YQQYQDATADEQG, originates from the porcine β-tubulin 422–434 for recognizing and binding tau proteins.[5],[6] (2) GSGS, a linker for increasing the flexibility of the peptide.[15] (3) KKVAVVRTPPKSP, for recruiting PP2A-Bα,[16] and (4) RRRRRRRR [DEPTAC, DEPhosphorylation TArgeting Chimera; 38 amino acid residues, C185H314N72O56]
endogenous mouse tau phosphorylation at Ser199 (endogenous mouse tau; [1]): limited effect | endogenous mouse tau phosphorylation at Ser396 (endogenous mouse tau; [1]): significantly downregulate | endogenous mouse tau phosphorylation at Ser404 (endogenous mouse tau; [1]): significantly downregulate | endogenous mouse tau phosphorylation at Thr205 (endogenous mouse tau; [1]): significantly downregulate | endogenous mouse tau, AT8 epitope (endogenous mouse tau; [1]): limited effect | endogenous mouse total tau (endogenous mouse tau; [1]): limited effect | efficiency of DEPTAC on mouse tau (endogenous mouse tau; NW Tau368 mice, overall, compared with dox group): relatively limited | averaged immunoreactive (IR) intensity of phospho-tau (human tau (hTau)): reduced
